Assay results as given in patent publication US9011863B2, “Combinations of kinase inhibitors for the treatment of cancer” (Exelixis, Inc., priority 2010, dated 2015).

What was measured:
[1] = molecular target: p110α catalytic subunit of PI3K (Homo sapiens, UniProt P42336); test: in vitro PI3K assay (PI3K-induced ATP consumption); assay type: biochemical; conditions: read-out: in vitro IC50 against p110α
Description: Compounds of formula I have been tested using the assay described in Biological Example 1 of WO2007044729 and have been determined to be PI3K inhibitors. As such, compounds of formula I are useful for treating diseases, particularly cancer in which PI3K activity contributes to the pathology and/or symptomatology of the disease. For example, cancer in which PI3K activity contributes to its pathology and/or symptomatology include breast cancer, colon cancer, rectal cancer, endometrial cancer, gastric carcinoma, glioblastoma, hepatocellular carcinoma, small cell lung cancer, non-small cell lung cancer, melanoma, ovarian cancer, pancreatic cancer, prostate carcinoma, acute myelogenous leukemia (AML), chronic myelogenous leukemia (CML), and thyroid carcinoma, and the like.
Suitable in vitro assays for measuring PI3K activity and the inhibition thereof by compounds are known. Typically, the assay will measure PI3K-induced ATP consumption. […] Cellular activity can be determined using assays as described in Biological Examples 2, 3, and 4 of WO2007044729. […]
The purpose of the present study is to identify kinases and kinase-regulated signaling pathways that compensate for PI3K inhibition in human breast cancer cells. […] Gene expression from three independent experiments was measured using the Gene titan 3′ microarray. *, p<0.05; **, p<0.01 versus 0 hours, as shown in FIG. 5. […]

HER3 protein = test: half-life of the HER3 protein with cycloheximide; assay type: cell-based, human; conditions: BT474 cells
Description: The half-life of the HER3 protein in absence and presence of compound A was determined using cycloheximide, an inhibitor of protein synthesis. […] Next the levels of HER3 mRNA was examined by qPCR upon inhibition of PI3K over a time course using the approximate IC50 of compound A (6 μM).

[2] = test system: p85-associated pTyr proteins in BT474 cells; test: p85 immunoprecipitation with pTyr / HER3 immunoblot; assay type: cell-based, human; conditions: BT474, 0-20 μM, 24 hours
Description: FIG. 13C depicts a photomicrrograph of immunoblots of cell lysates from BT474 cells which were treated with 0-20 μM compound A for 24 hours. Cells were then lysed, and 0.5 mg of lysate subjected to immunoprecipitation (IP) with a p85 antibody followed by p85 and pTyr.
FIG. 13D depicts a photomicrrograph of immunoblots of cell lysates from BT474 cells which were treated with 0-20 μM compound A for 24 hours. Cells were then lysed, and 0.5 mg of lysate subjected to immunoprecipitation (IP) with a p85 antibody followed by p85 and HER3.
Immunoprecipitation, immunoblotting, and RTK assays were performed according to published methods. […] Immunoreactive signals were detected by enhanced chemilluminsecence (Pierce, Rockford, Ill., USA). […]
In HER2 overexpressing cells, although not bound by any particular theory, it is believed that the main mechanism of activation of PI3K is the coupling of pHER3 to an SH2 domain in the N-terminus of p85, the regulatory subunit of PI3K. […] Consistent with previous studies, the p85-associated approximately 200-kDa band was also detected with HER3 and pHER3^Y1197 antibodies as shown in FIGS. 13D and 13F. […]

BT474 xenografts = test: BT474 xenograft experiments; assay type: in vivo, mice; conditions: trastuzumab 30 mg/kg twice-a-week i.p.; lapatinib 100 mg/kg daily; compound A 100 mg/kg daily gavage; 28 days
Description: Tumor volumes were recorded twice-a-week. Each data point represents the mean tumor volume in mm^3±SE of 8 mice per type of treatment. CR=complete response to treatment.
Animal experiments were approved by the Institutional Animal Care Committee of Vanderbilt University Medical Center (VUMC). Mice were housed in the accredited Animal Care Facility of the VUMC. A 17β-estradiol pellet (Innovative Research of America) was injected subcutaneously (s.c.) into each 6- to 7-week-old athymic female mice (Harlan Sprague Dawley, Inc.) the day before tumor cell injection. BT474 cells (3×10^6) mixed 1:1 with Matrigel (BD Biosciences) were injected s.c. into the right flank of each mouse. Tumor diameters were measured with calipers twice-a-week and volume in mm^3 calculated with the formula: volume=width^2×length/2. […] Mice were euthanized after 28 days of treatment.
There was no significant drug-related toxicity in any of the treatment arms.

Chain of p110α catalytic subunit of PI3K (P42336 whole entry): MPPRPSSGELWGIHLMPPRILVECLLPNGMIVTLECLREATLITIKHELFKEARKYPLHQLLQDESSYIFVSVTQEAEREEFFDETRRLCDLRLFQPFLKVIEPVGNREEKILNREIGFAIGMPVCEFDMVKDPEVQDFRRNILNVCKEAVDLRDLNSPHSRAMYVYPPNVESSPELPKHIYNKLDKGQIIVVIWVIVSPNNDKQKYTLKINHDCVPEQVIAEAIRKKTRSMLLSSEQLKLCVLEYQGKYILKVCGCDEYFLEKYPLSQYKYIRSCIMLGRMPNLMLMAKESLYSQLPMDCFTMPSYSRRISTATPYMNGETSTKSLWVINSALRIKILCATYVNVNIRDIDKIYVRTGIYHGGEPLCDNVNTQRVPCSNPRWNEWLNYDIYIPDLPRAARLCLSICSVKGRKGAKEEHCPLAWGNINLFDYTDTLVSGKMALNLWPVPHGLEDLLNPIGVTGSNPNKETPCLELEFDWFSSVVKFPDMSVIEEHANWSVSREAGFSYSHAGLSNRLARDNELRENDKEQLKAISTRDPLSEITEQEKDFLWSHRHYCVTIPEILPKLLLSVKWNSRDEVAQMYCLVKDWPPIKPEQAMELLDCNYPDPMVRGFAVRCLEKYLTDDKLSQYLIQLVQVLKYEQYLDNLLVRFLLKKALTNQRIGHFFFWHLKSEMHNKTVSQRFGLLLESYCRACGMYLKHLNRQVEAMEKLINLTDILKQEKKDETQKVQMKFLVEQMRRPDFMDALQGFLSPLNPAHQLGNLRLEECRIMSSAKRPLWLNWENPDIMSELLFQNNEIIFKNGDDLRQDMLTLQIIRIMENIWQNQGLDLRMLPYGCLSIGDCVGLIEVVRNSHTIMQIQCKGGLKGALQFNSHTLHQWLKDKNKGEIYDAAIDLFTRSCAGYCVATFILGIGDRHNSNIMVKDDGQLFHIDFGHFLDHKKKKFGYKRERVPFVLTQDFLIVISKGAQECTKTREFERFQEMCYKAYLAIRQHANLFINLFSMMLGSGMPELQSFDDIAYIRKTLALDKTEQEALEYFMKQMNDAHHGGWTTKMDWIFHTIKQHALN
Chain of p110α catalytic subunit of PI3K (P27986 whole entry partner): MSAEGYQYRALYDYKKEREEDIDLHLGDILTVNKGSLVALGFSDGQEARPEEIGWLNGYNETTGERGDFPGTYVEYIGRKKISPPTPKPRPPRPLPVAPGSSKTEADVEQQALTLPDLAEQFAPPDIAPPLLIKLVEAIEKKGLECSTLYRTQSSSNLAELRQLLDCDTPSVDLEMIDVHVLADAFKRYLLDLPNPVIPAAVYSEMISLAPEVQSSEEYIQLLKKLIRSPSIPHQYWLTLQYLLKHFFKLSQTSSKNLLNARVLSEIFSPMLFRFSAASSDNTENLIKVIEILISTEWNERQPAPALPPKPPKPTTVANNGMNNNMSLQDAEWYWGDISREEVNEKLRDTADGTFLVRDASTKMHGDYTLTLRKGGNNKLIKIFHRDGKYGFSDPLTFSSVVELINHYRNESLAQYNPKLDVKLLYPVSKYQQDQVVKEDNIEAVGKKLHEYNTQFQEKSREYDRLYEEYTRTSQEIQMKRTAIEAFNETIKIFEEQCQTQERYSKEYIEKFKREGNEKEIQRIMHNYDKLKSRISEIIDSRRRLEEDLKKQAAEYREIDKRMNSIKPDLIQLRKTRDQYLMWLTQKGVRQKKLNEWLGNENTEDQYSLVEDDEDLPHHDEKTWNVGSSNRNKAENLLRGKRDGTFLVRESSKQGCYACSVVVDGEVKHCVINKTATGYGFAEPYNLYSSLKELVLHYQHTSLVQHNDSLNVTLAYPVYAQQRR

Compound: COc1ccc(Cl)c(Nc2nc3ccccc3nc2NS(=O)(=O)c2cccc(NC(=O)C(C)(C)N)c2)c1 [Compound A]
- IC50 [1]: 39 nM
- rate of decay of the HER3 protein (HER3 protein): not significantly altered
- p85-associated pTyr band [2]: dose-dependent increase of approximately 200-kDa main pTyr band
- tumor growth, monotherapy (BT474 xenografts): significantly delayed tumor growth
